Reference: patent US20180193273A1, “PHARMACEUTICAL COMPOSITION COMPRISING AMLODIPINE AND DEXTROMETHORPHAN” (TSH BIOPHARM CORPORATION LTD., priority 2015, published 2018)

Experiments:
[1] = Compatibility study: drug potency and total impurity test of vial powder mixes after storage at 60° C./75% RH for 2 weeks (HPLC); type: physicochemical; conditions: glass vial powder mix
[2] = Different excipients: potency and impurity of vial samples A1 to A25 after 60° C./75% RH for 2 weeks (HPLC); type: physicochemical; conditions: glass vial sample

| % Potency (Amlodipine besylate) [1] | Total impurity [1] | Total impurity (%): NMT 1.00% [2] | Compound |
| --- | --- | --- | --- |
| 100.2% | 0.02 |  | CCOC(=O)C1=C(COCCN)NC(C)=C(C(=O)OC)C1c1ccccc1Cl (stereo not drawn) [Table 1, Amlodipine besylate] |
|  |  | 0.02% | CCOC(=O)C1=C(COCCN)NC(C)=C(C(=O)OC)C1c1ccccc1Cl (stereo not drawn) [Sample A1, Amlodipine besylate] |
